# In publication PMC8881069, “Thio- and selenosemicarbazones as antiprotozoal agents against Trypanosoma cruzi and Trichomonas vaginalis” (Journal of Enzyme Inhibition and Medicinal Chemistry, 2022):
# What was measured:
# [1] = system: Trypanosoma cruzi CL-B5 (DTU TcVI) epimastigotes; experiment: CL-B5 lacZ epimastigote susceptibility assay (CPRG); assay type: cell-based; conditions: T. cruzi CL-B5 lacZ epimastigotes, 72 h, mean ± SD, n = 3
# L929 cells = experiment: Unspecific cytotoxicity assay on L929 fibroblasts (resazurin); assay type: cell-based; conditions: mean ± SD, n = 3; for CC50 at 72 h: mouse; for CC50: 72 h
# Trichomonas vaginalis = experiment: Trichomonacidal in vitro assay (resazurin); assay type: cell-based; conditions: isolate JH31A#4, 24 h, brackets: 95% confidence interval
# [2] = system: Trypanosoma cruzi Y (DTU TcII) epimastigotes; experiment: Y strain epimastigote susceptibility assay (resazurin); assay type: cell-based; conditions: T. cruzi Y strain epimastigotes, 48 h, mean ± SD, n = 3
# J774 cells = experiment: Unspecific cytotoxicity assay on J774 macrophages (resazurin); assay type: cell-based, mouse; conditions: mean ± SD, n = 3; for CC50 at 48 h: mouse
# [3] = system: Trypanosoma cruzi CL-B5 amastigotes; experiment: CL-B5 lacZ intracellular amastigote susceptibility assay (CPRG); assay type: cell-based; conditions: intracellular amastigotes in L929 cells, 7 days, mean ± SD, n = 3
# Vero cells = experiment: Unspecific cytotoxicity assay in Vero cells (resazurin); assay type: cell-based, African green monkey; conditions: for CC50 at 24 h: African green monkey; for CC50 at 24 h / CC50: Vero cells, brackets: 95% confidence interval, 24 h; for unspecific cytotoxicity towards Vero cells (in words): highest concentration evaluated (300 µM)
# [4] = system: hydrogenosome membrane potential of T. vaginalis; experiment: Hydrogenosomal membrane potential assay (JC-1); conditions: Figure 3; 4 h; 51 and 63 at 100 µM, MTZ 24 µM, CCCP 50 µM
# [5] = Vero CCL-81 cells (kidney epithelial cells)
SMILES,IC50 ([1]; Trypanosoma cruzi),CC50 at 72 h (L929 cells),"IC50 (Trichomonas vaginalis; Trichomonas vaginalis, 24 h)",also measured
O=[N+]([O-])c1cccc(NC(=S)N/N=C/c2ccc(O)c(O)c2)c1 [Compound 58],33.8 ± 7.59 µM,12 ± 1.42 µM,73.4 µM,–
Cc1ccc(NC(=S)N/N=C/c2ccc(O)cc2)cc1 [Compound 39],39.6 ± 7.08 µM,61 ± 3.72 µM,66.1 µM,–
O=[N+]([O-])c1ccccc1NC(=S)N/N=C/c1ccc(O)c(O)c1 [Compound 55],42 ± 9.06 µM,21.4 ± 4.12 µM,133 µM,–
COc1ccc(/C=N/NC(=S)Nc2ccc(OC)cc2)cc1 [Compound 43],26.8 ± 2.68 µM,> 256 µM,258 µM,"IC50 ([2]; Trypanosoma cruzi): 55.6 ± 16.3 µM; CC50 at 48 h (J774 cells): > 256 µM; IC50 ([3]; Trypanosoma cruzi, 168 h): 39 ± 14.3 µM"
Oc1ccc(/C=N/NC(=S)Nc2ccc(Br)cc2)cc1O [Compound 49],104 ± 15.7 µM,16.7 ± 0.7 µM,11.1 µM,IC50 (Trichomonas vaginalis): 16.4 µM; CC50 at 24 h (Vero cells; [5]): ≥ 275 µM; CC50 (Vero cells): > 300 µM; unspecific cytotoxicity towards Vero cells (in words) (Vero cells): did not exhibit unspecific cytotoxicity
COc1ccc(/C=N/NC(=S)Nc2ccc([N+](=O)[O-])cc2)cc1 [Compound 60],> 256 µM,> 256 µM,155 µM,–
O=[N+]([O-])c1ccc(/C=N/NC(=S)Nc2ccc([N+](=O)[O-])cc2)cc1 [Compound 62],> 256 µM,53.5 ± 4.82 µM,152 µM,–
Oc1ccc(/C=N/NC(=S)Nc2ccc(I)cc2)cc1 [Compound 50],22.8 ± 1.61 µM,41.4 ± 8.36 µM,42.2 µM,CC50 at 24 h (Vero cells; [5]): > 300 µM
O=[N+]([O-])c1ccc(NC(=S)N/N=C/c2ccc(O)cc2)cc1 [Compound 59],76.4 ± 9.91 µM,29.4 ± 2.52 µM,36 µM,CC50 at 24 h (Vero cells; [5]): 254 µM
"Cc1ncc([N+](=O)[O-])n1CCO [Metronidazole, metronidazole, reference compound]",–,–,2.68 µM,CC50 at 24 h (Vero cells; [5]): > 300 µM; JC-1 fluorescence distribution in trophozoites (fluorescence microscopy) [4]: fluorescence restricted to certain regions of the parasite
Oc1ccc(/C=N/NC(=S)Nc2ccccc2)cc1 [Compound 36],70.9 ± 11 µM,46.29 ± 0.15 µM,74 µM,–
Oc1ccc(/C=N/NC(=S)Nc2cccc3ccccc23)cc1 [Compound 63],–,–,–,IC50 [1]: 53.6 ± 11.3 µM; CC50 (L929 cells): 31.1 ± 9.21 µM; IC50 (Trichomonas vaginalis): 14.9 µM; CC50 (Vero cells): 275 µM; JC-1 fluorescence distribution in trophozoites (fluorescence microscopy) [4]: fluorescence restricted to certain regions of the parasite
COc1ccc(/C=N/NC(=[Se])Nc2ccc(I)cc2)cc1 [Compound 75],–,–,11 µM,unspecific cytotoxicity towards Vero cells (in words) (Vero cells): did not present toxic effects at the maximum concentration tested
NNC(=S)Nc1ccc([N+](=O)[O-])cc1 [Compound 30],72.5 ± 1.23 µM,23.6 ± 2.84 µM,106 µM,–
Cc1ccc(NC(=S)N/N=C/c2ccc(O)c(O)c2)cc1 [Compound 41],119 ± 7.68 µM,20 ± 1.87 µM,80.6 µM,–
"O=C(Cn1ccnc1[N+](=O)[O-])NCc1ccccc1 [Benznidazole, benznidazole, reference compound]",25.3 ± 1.63 µM,> 256 µM,–,"IC50 ([2]; Trypanosoma cruzi): 22.7 ± 1.82 µM; CC50 at 48 h (J774 cells): > 256 µM; IC50 ([3]; Trypanosoma cruzi, 168 h): 0.47 ± 0.09 µM"
COc1ccc(/C=N/NC(=S)Nc2cccc3ccccc23)cc1 [Compound 64],–,–,–,IC50 [1]: > 256 µM; CC50 (L929 cells): > 256 µM; IC50 (Trichomonas vaginalis): 30.5 µM; CC50 (Vero cells): > 300 µM
NNC(=S)Nc1cccc([N+](=O)[O-])c1 [Compound 29],79.9 ± 15.4 µM,206 ± 7.25 µM,19.1 µM,CC50 at 24 h (Vero cells; [5]): > 300 µM
Oc1ccc(/C=N/NC(=S)Nc2ccc(Br)cc2)cc1 [Compound 47],42.8 ± 12 µM,67 ± 5.43 µM,52.4 µM,–
NNC(=S)Nc1ccc(Cl)cc1 [Compound 25],44.2 ± 13.6 µM,67.7 ± 3.16 µM,49.2 µM,CC50 at 24 h (Vero cells; [5]): > 300 µM
COc1ccc(/C=N/NC(=S)Nc2ccc(F)cc2)cc1 [Compound 44],> 256 µM,> 256 µM,> 300 µM,–
COc1ccc(/C=N/NC(=S)Nc2ccccc2[N+](=O)[O-])cc1 [Compound 54],210 ± 14.5 µM,> 256 µM,34.2 µM,CC50 at 24 h (Vero cells; [5]): > 300 µM

SMILES,IC50 ([1]; Trypanosoma cruzi),CC50 at 72 h (L929 cells),"IC50 (Trichomonas vaginalis; Trichomonas vaginalis, 24 h)",also measured
COc1ccc(/C=N/NC(=S)Nc2ccc(C)cc2)cc1 [Compound 40],> 256 µM,> 256 µM,226 µM,–
COc1ccc(/C=N/NC(=S)Nc2cccc([N+](=O)[O-])c2)cc1 [Compound 57],23 ± 6.33 µM,> 256 µM,51.9 µM,"IC50 ([2]; Trypanosoma cruzi): > 256 µM; CC50 at 48 h (J774 cells): > 256 µM; IC50 ([3]; Trypanosoma cruzi, 168 h): 22.3 ± 4.2 µM"
NNC(=S)Nc1ccc(F)cc1 [Compound 24],58.8 ± 8.77 µM,> 256 µM,200 µM,IC50 ([2]; Trypanosoma cruzi): 97.3 ± 3.45 µM; CC50 at 48 h (J774 cells): > 256 µM
Oc1ccc(/C=N/NC(=S)Nc2cccc3ccccc23)cc1O [Compound 65],–,–,–,IC50 [1]: 70.2 ± 6.99 µM; CC50 (L929 cells): 28.8 ± 7.77 µM; IC50 (Trichomonas vaginalis): 20.1 µM; CC50 (Vero cells): 175 µM
NNC(=S)Nc1ccccc1[N+](=O)[O-] [Compound 28],44.1 ± 5.38 µM,210 ± 15.3 µM,> 300 µM,–
O=[N+]([O-])c1ccc(NC(=S)N/N=C/c2ccc(O)c(O)c2)cc1 [Compound 61],111 ± 14.8 µM,5.37 ± 0.3 µM,128 µM,–
COc1ccc(/C=N/NC(=S)Nc2ccc(I)cc2)cc1 [Compound 51],> 256 µM,> 256 µM,14.8 µM,IC50 (Trichomonas vaginalis): 14.8 µM; CC50 at 24 h (Vero cells; [5]): ≥ 275 µM; CC50 (Vero cells): > 300 µM; unspecific cytotoxicity towards Vero cells (in words) (Vero cells): did not exhibit unspecific cytotoxicity; JC-1 fluorescence distribution in trophozoites (fluorescence microscopy) [4]: fluorescence restricted to certain regions of the parasite
O=[N+]([O-])c1ccccc1NC(=S)N/N=C/c1ccc(O)cc1 [Compound 53],21.8 ± 2.98 µM,34.9 ± 8.65 µM,92.8 µM,–
COc1ccc(NC(=S)NN)cc1 [Compound 23],53.5 ± 13 µM,> 256 µM,256 µM,IC50 ([2]; Trypanosoma cruzi): 59.9 ± 10.4 µM; CC50 at 48 h (J774 cells): > 256 µM
NNC(=S)Nc1ccc(I)cc1 [Compound 27],49.8 ± 14.2 µM,51 ± 8.88 µM,75.7 µM,–
COc1ccc(NC(=S)N/N=C/c2ccc(O)cc2)cc1 [Compound 42],49.2 ± 9.97 µM,43.3 ± 16.6 µM,64.8 µM,–
Oc1ccc(/C=N/NC(=S)Nc2ccc(F)cc2)cc1O [Compound 45],97.4 ± 5.33 µM,30.5 ± 3.93 µM,226 µM,–
O=[N+]([O-])c1cccc(NC(=S)N/N=C/c2ccc(O)cc2)c1 [Compound 56],36.9 ± 3.84 µM,28.8 ± 3.25 µM,24.3 µM,CC50 at 24 h (Vero cells; [5]): 169 µM
Oc1ccc(/C=N/NC(=S)Nc2ccc(I)cc2)cc1O [Compound 52],69.4 ± 4.73 µM,20.8 ± 7.92 µM,24.9 µM,CC50 at 24 h (Vero cells; [5]): > 300 µM
COc1ccc(/C=N/NC(=S)Nc2ccccc2)cc1 [Compound 37],–,> 256 µM,167 µM,IC50 ([2]; Trypanosoma cruzi): 85.1 ± 17.2 µM; CC50 at 48 h (J774 cells): > 256 µM
"N#CC(C#N)=NNc1cccc(Cl)c1 [CCCP, m-chlorocarbonylcyanide phenylhydrazone, reference compound]",–,–,–,JC-1 fluorescence distribution in trophozoites (fluorescence microscopy) [4]: provokes a disturbance in the hydrogenosome membrane potential
COc1ccc(/C=N/NC(=S)Nc2ccc(Cl)cc2)cc1 [Compound 46],30.5 ± 4.1 µM,49.7 ± 3.76 µM,32.3 µM,CC50 at 24 h (Vero cells; [5]): > 300 µM
Oc1ccc(/C=N/NC(=[Se])Nc2ccc(Br)cc2)cc1O [Compound 74],–,–,11.1 µM,CC50 at 24 h (Vero cells): 114 µM
NNC(=S)Nc1cccc2ccccc12 [Compound 31],–,–,–,IC50 [1]: 28.7 ± 4.61 µM; CC50 (L929 cells): > 256 µM; IC50 [2]: 33.6 ± 5.72 µM; CC50 (J774 cells; 48 h): > 256 µM; IC50 [3]: 39.7 ± 9.91 µM; IC50 (Trichomonas vaginalis): 30.2 µM; CC50 (Vero cells): > 300 µM
COc1ccc(/C=N/NC(=S)Nc2ccc(Br)cc2)cc1 [Compound 48],> 256 µM,> 256 µM,55.1 µM,–
Oc1ccc(/C=N/NC(=S)Nc2ccccc2)cc1O [Compound 38],15.3 ± 2.22 µM,45.2 ± 0.58 µM,88.6 µM,–
